Series [1] concerns macrotumors formed by T4-2 cells. The series can be described thus: Weekly doxorubicin treatment of macrotumors, pathological assessment of nuclear morphology. The series is classed as cell-based. Particulars: 10 μM; 24 h weekly for three weeks; assessed at days 7 and 21. The method, then: (§1) FIG. 6. Effect of Doxorubicin treatment on macrotumors formed by T4-2 cells. a. Images of macrotumors treated (Dox) or untreated (Control) with 10 μM doxorubicin at day 0, for 24 hours and further cultured for six days. n=two replicates for this experiment (1, 2). b. Shown are the surface areas of macrotumors from A measured at days 0, 1, 2, 4, 5, and 7. c. Another experiment with 24 h Doxorubicin (Dox) treatment at day 0, 7 and 14 with images taken at day 0 and 21. Size bars, 5 mm
Macrotumors were fixed in 4% paraformaldehyde (Santa Cruz; Dallas, TX) prior to embedding in paraffin at the Histology Research Laboratory, Department of Comparative Pathobiology, Purdue University, according to standard protocols used for tumor sample embedding, sectioning, immunohistochemistry with polyclonal antibodies against caspase 3 (1/200; Cell Signaling Tech, Danvers, MA) and Ki67 (1/500; Millipore-Sigma, St Louis, MO) and hematoxylin & eosin (H&E) staining. Certain sections were stained with toluidine blue (SigmaAldrich, St. Louis, MO) before H&E staining.

Series [2] shares this test system. The series can be described thus: Doxorubicin uptake in macrotumors (autofluorescence, confocal Z-sections). The series is classed as cell-based. Particulars: 4-h treatment, 10 μg/ml [17.25 μM], macrotumors cultured 24 h. The method, then: FIG. 1. Differential centrifugation of small tumor nodules leads to the formation of simple and mixed types of macrotumors with in vivo like pathological features. The formation of tumors of up to 600 μm in size was induced by culturing either IDC T4-2 cells or S2 DCIS cells in Matrigel™ drip culture for 10 days. Upon release from Matrigel™ with dispase treatment, tumor nodules were incubated with 100 μg/ml fibronectin solution, spun down either as a single type of nodules (9,000 nodules; a-e) or as mixed types of nodules (4,500 nodules of each tumor type; f-g) and embedded in collagen I (2,000 Pa) as detailed in the methods section. a. […] Macrotumors cultured for 24 h were incubated with 17.25 μM doxorubicin for four hours and imaged with bright field and fluorescence microscopy (doxorubicin autofluorescence in the red channel). […] Fluorescence images of macrotumors formed by DiI-stained T4-2 nodules, CellMask™ Green-stained S2 nodules and mixed types of macrotumors with T4-2 and S2 nodules (either mixed before centrifugation ‘T4-2/S2 by mixing’ or sequentially centrifuged ‘T4-2/S2 by stacking’) taken with a Nikon®ECLIPSE® Ts2 inverted microscope (Nikon, Melville, NY). g. […] In D, 50 nuclei analyzed in two biological replicates for macrotumors and 100 nuclei analyzed per section of three tissue samples; *P<0.05 **P<0.01; ANOVA with Tukey's posthoc test. […]

For series [3] the test system is unchanged. The series can be described thus: Doxorubicin treatment of macrotumors, tumor size (surface area). It is filed as cell-based. Particulars: 10 μM; 24 h, followed by six-day resting period. As to the method:
as §1
Images of whole tumors in culture and of paper scaffold were taken with a Plugable USB 2.0 Digital Microscope (Plugable Technologies, Redmond, WA). Tumor size (short and long axis) was measured with ImageJ. For pathological assessment slides were either directly visualized by microscopy or scanned (20× objective) with an Aperio/Pathology Slide Scanner (Leica Biosystems Inc., Buffalo Grove, IL).

The nature of series [4]: Stiffness measurement of collagen I with fibronectin (compression test). The series is classed as physicochemical. The following applies: fibronectin with collagen I vs collagen I only. The method, then:
FIG. 3. Impact of fibronectin on macrotumors. Small tumors (9000) preformed in Matrigel™ for 10 days were used to make macrotumors as described in the Methods section with or without incubation with 100 μg/ml fibronectin. a. Macrotumors prepared without fibronectin incubation and cultured for 24 hours (right images at 40× magnification). b. Comparison of volumes and areas of macrotumors with (+) or without (−) incubation with fibronectin after 30 minutes (0.5 h) and 24 h of culture; n=5, mean+/−SEM. c. Stiffness of collagen I (Young's modulus, Pa) prepared with Collagen I, and measured with customized eXpert 4000, ADMET by constant pressure on unconstrained sample (see reference 15 for details for this procedure). d. Staining with H&E of macrotumors prepared without incubation with fibronectin. e. representative images of macrotumors and nodules (mixed in collagen I for 10 minutes without prior centrifugation). Shown is the bar graph of the percentage of cells positive for proliferation marker Ki67 staining after 24 h of culture of macrotumors in collagen I or collagen I+fibronectin (F), or nodules (mixed in collagen I for 10 minutes without prior centrifugation); n=2; 150 nuclei analyzed per biological replicate. […]
The elastic modulus of cultured samples can be calculated from engineered stress-strains curve attained with compression tests. […]

2 compounds from US12006509B2, “Macrotumor engineering” (Purdue Research Foundation, priority 2019, dated 2024) can be followed below.

“Also recorded” adds a separate entry of the source.

On to `COc1cccc2c1C(=O)c1c(O)c3c(c(O)c1C2=O)C[C@@](O)(C(=O)CO)C[C@@H]3O[C@H]1C[C@H](N)[C@H](O)[C@H](C)O1` [doxorubicin], for which the “nuclear morphology (pathological assessment)” value in series [1] is “increasingly affected”. In addition, in series [2], the “drug uptake / penetration in the macrotumor” value is “penetration of doxorubicin in all areas of the macrotumor; also recorded: drug uptake occurred throughout the macrotumors”. Further, in series [3], the tumor size result was “appeared to decrease tumor size after day 4”.

Fibronectin: the ECM stiffness result in series [4] is on record as “slightly raised”.
